{"source": "patent US7645878B2", "about": "“Process for preparing quinazoline Rho-kinase inhibitors and intermediates thereof” (Bayer Healthcare LLC, priority 2002, dated 2010)"}
{"smiles": "c1ccc2c(Nc3ccc4[nH]ncc4c3)nc(-c3ccc4c(c3)CCO4)nc2c1", "note": "[Example 9, 2-(2,3-dihydro-1-benzofuran-5-yl)-N-(1H-indazol-5-yl)-4-quinazolinamine]", "values": [{"measurement": "melting point", "value": "267 to 272", "unit": "°C"}]}
